Laboratory results from ChEMBL document CHEMBL5233288, “Ginkgo Biflavones Cause p53 Wild-Type Dependent Cell Death in a Transcription-Independent Manner of p53” (J Nat Prod, 2023).
Activity calls are given as the source filed them. No cut-off for these calls is given here.

Legend:
[1] = Toxicity against BALB/c nude mouse xenografted with human HCT-116 cells assessed as body weight loss at 30 mg/kg, ip administered once every 3 days for 12 days and measured every 2 days; format: organism-based; details: in vivo, 288 h, time 12 day
HCT-116 = assay: Antitumor activity against human HCT-116 cells xenografted in BALB/c nude mouse assessed as reduction in tumor volume at 30 mg/kg, ip administered once every 3 days for 12 days and measured every 2 days; format: functional, organism-based; details: time 12.0 day

For O=c1[nH]cc(F)c(=O)[nH]1 [FLUOROURACIL], the Activity [1] was “Toxic” and the Activity (HCT-116) was “Active”.
